Assay [1] has as its target HLA-A*0201 (Homo sapiens, UniProt P04439, D140Y/D185E/D98H/E176V/E277Q/G131W/G231S/I119V/I121R/I166T/I218V/L300P/L318F/N151K/N90K/P208A/P217A/Q86G/Q94H/R138H/R169H/T345S). The assay can be described thus: REVEAL MHC molecule binding assay (ProImmune). The settings on record: level of binding relative to pass/fail control binder designated 100%.
Assay [2] deals with HLA-A*0201 (Homo sapiens, UniProt P04439, /I218V/L300P/L318F/N151K/N90K/P208A/P217A/Q86G/Q94H/R138H/R169H/T345S). The assay can be described thus: REVEAL MHC molecule binding assay (ProImmune). The settings on record: value of the unmodified old peptide listed beside the modified peptide ID.
The test system of assay [3] is autologous responder cells (monocyte-depleted PBMC) from HLA-A*0201-negative donors. Put plainly: Induction of pentamer positive CD8+ T cells by peptide-pulsed HLA-A*0201-transfected moDC (Example 8). Type of assay: cell-based, human. As for the experimental part: MoDC transfected with HLA-A*0201 mRNA were harvested 18 hours after transfection and resuspended in 1-2 ml of serum-free DC-medium containing 50 μg/ml peptide, such as MART-1 or peptide #19. The cells were incubated at 37° C., 5% CO2 for 4 hours, then washed once in serum-free RPMI.
Stimulator and responder cells were seeded at a stimulator to responder (S:R) ratio of 1:10, with 3.0×10^6 responders per well in serum-free DC medium containing 10 ng/ml IL-7 (PeproTech EC Ltd.), 50 pg/ml IL-12 (PeproTech EC Ltd.), and PPD at 1 μg/ml.
On day 12 the responder cells were harvested and analyzed for the presence of pentamer positive cells. The cells were either sorted or restimulated.
Restimulation was done with autologous EBV-LCL transfected with HLA-A*0201 mRNA 12-24 hours prior to stimulation, harvested and resuspended in 1-2 ml of serum-free X-Vivo 20 (Cambrex) containing the same peptide as added on day 0 at 20 μg/ml, and incubated for 4 hours at 37° C., 5% CO2. Following incubation, the EBV-LCL were washed once in serum-free RPMI.
From day 12 of co-culture with stimulator cells, the responders were harvested, counted and analyzed for the presence of pentamer positive cells weekly. The responder cells were either restimulated, as described above, or the pentamer positive cells were sorted and expanded as described below.
Monocyte-derived dendritic cells (moDC) from HLA-A*0201-negative donors were transfected with HLA-A*0201 mRNA after maturation. 18-24 hours post-transfection the cells were pulsed with the peptides indicated in Table 2 for four hours, before co-culturing them with autologous responder cells (monocyte-depleted PBMC). On day 12 and day 19 and in some cases at day 26 of co-culture, the cells were harvested, stained with relevant peptide-MHC-pentamer and analyzed by flow cytometry. The percentage of pentamer positive cells was calculated by dividing the number of pentamer positive cells by the number of CD8+ cells. On day 12 and day 19, the cells were restimulated with autologous EBV-cells that were transfected with HLA-A*0201 mRNA and loaded for four hours with the relevant peptides indicated in Table 2.

The subject of assay [4] is CD8+ T cells from HLA-A*0201 negative donors. Put plainly: Induction of A2/CD20 pentamer+ T cells by HLA-A*0201-transfected peptide-pulsed moDC (Example 10). Format: cell-based, human. As for the experimental part:
Mature moDCs were harvested 18 hours after transfection with HLA-A*0201 mRNA (HLA-A*0201 negative donors), or left untransfected (HLA-A*0201 positive donors), pulsed with 50 μg/ml peptide for 4 hours, irradiated (25Gy), washed and co-cultured with thawed, autologous, non-adherent cells at a ratio of 1:10 in CeliGro DC medium in the presence of 10 ng/ml IL-7 (PeproTech EC Ltd.), 50 pg/ml IL-12 (PeproTech EC Ltd.) and 1 μg/ml purified protein derivative-1 (gift from Prof. L. Sollid's lab, Rikshospitalet, Oslo) with the addition of 10 ng/ml IL-7 on day 7. Cells were analyzed for the presence of pentamer^+ cells, harvested and re-stimulated on day 12 with HLA-A*0201-transfected, peptide-pulsed autologous EBV-LCL. Cells were co-cultured in X-vivo 20 (Lonza, Verviers, Belgium) with 5% pooled human serum, 10 U/ml IL-2 (R&D systems, Minneapolis, Minn.) was added on day 14 and the cells harvested for cell sorting day 19.
Harvested cells were stained with A2/CD20 pentamer, fluorotag and anti-CD8 according to the manufacturers' instructions. Sorting was performed by flow cytometry (FACS Aria Cell sorter, BD Biosciences, San Jose, Calif.) or by magnetic beads to a purity of >98%. Pentamer^+ cells labelled with fluorotag conjugated to PE were isolated using MACS anti-PE MicroBeads (Miltenyi Biotec, Bergisch Gladbach, Germany) followed by separation over two subsequent MACS MS Columns (Miltenyi Biotec).

Assay [5] has as its system myelo-monocytic leukemia cell line THP-1. The assay can be described thus: IFN-γ production and CD107a/b mobilization, peptide-loaded targets. Conditions: THP-1 loaded with peptide and washed, p=0.016, n=4. Format: cell-based, human.

“SVDPRIANV [82] (homo sapiens) [Peptide 82, from MPO]”: the “% Pass/fail control” value in the assay with HLA-A*0201 [1] worked out at 295.4%. For the same sequence, the “% Pass/fail (Old Peptide)” value with HLA-A*0201 [2] worked out at 295.4%. Also, the “Day 12 % pent+/CD8+” value in assay [3] (day 12 of co-culture) was determined as 0.04%. In addition, the “Day 19 % pent+/CD8+” value in assay [3] (day 19 of co-culture, after restimulation) worked out at 0.19%. Further, the “Day 12 Donors” value in assay [3] (donors with positive response / donors tested, day 12) is listed as 1/2. In addition, the “Day 19 Donors” value in assay [3] (donors with positive response / donors tested, day 19) was 1/2.
Take “SLFLGILSV (homo sapiens) [Peptide 19, from CD20]”: in assay [4] (day 12), the “donors with positive cells” value is listed as 5 of 6, the “median frequency of pentamer positive cells of CD8+ T cells” value was found to be 0.19% and the “range of frequency of pentamer positive cells of CD8+ T cells” value was 0-0.31%. Besides, the “donors with pentamer positive cells” value in assay [4] (day 19) was 6/6. In assay [4] (day 19, after re-stimulation), the “median frequency of pentamer positive cells of CD8+ T cells” value is on record as 0.57% and the “range of frequency of pentamer positive cells of CD8+ T cells” value is listed as 0.12-2.79%. In addition, the “peptide concentration at which increase in frequency of activated T cells reached statistical significance” value in assay [5] is 100 nM.

(Values after patent publication US20110142842A1, “POLYPEPTIDES” (Medinnova AS, priority 2007, published 2011).)
